ChEMBL document CHEMBL5576041, “13-oxyingenol dodecanoate derivatives induce mitophagy and ferroptosis through targeting TMBIM6 as potential anti-NSCLC agents” (Eur J Med Chem, 2024)
Active and inactive are the calls of the source. The rule behind the calls is not given here.

Experiments:
HepG2 = experiment: Antiproliferative activity against human HepG2 cells assessed as inhibition of cell growth incubated for 24 to 72 hrs by CCK8 assay; assay type: functional, cell-based
A549 [1] = experiment: Antiproliferative activity against human A549 cells assessed as inhibition of cell growth incubated for 24 to 72 hrs by CCK8 assay; assay type: functional, cell-based
NCI-H460 = experiment: Antiproliferative activity against human NCI-H460 cells assessed as inhibition of cell growth incubated for 24 to 72 hrs by CCK8 assay; assay type: functional, cell-based
[2] = Selectivity index, ratio of IC50 for cytotoxicity against human BEAS-2B cells to IC50 for antiproliferative activity against human A549 cells; assay type: toxicity, cell-based; conditions: read-out: Ratio IC50
[3] = molecular target: Bax inhibitor 1 (Homo sapiens) (UniProt P55061); experiment: Thermal stabilization of TMBIM6 in human A549 cells at 46 to 60 degreeC at 100 uM incubated for 2 hrs by CETSA based Western blot analysis; assay type: cell-based
[4] = molecular target: Bax inhibitor 1 (Homo sapiens) (UniProt P55061); experiment: Thermal stabilization of TMBIM6 in human A549 cells at 54 to 60 degreeC at 100 uM incubated for 2 hrs by CETSA based Western blot analysis; assay type: cell-based
A549 [5] = experiment: Induction of autophagy in human A549 cells assessed as effect on PINK1 protein expression at 10 to 20 uM incubated for 24 hrs by Western blot analysis; assay type: functional, cell-based; conditions: dose 10-20 µM
A549 [6] = experiment: Induction of autophagy in human A549 cells assessed as effect on LC3II protein expression at 10 to 20 uM incubated for 24 hrs by Western blot analysis; assay type: functional, cell-based; conditions: dose 10-20 µM
A549 [7] = experiment: Induction of ferroptosis in human A549 cells assessed as reduction in GSH content incubated for 2 to 12 hrs; assay type: functional, cell-based; conditions: time 2-12 hrs
A549 [8] = experiment: Induction of ferroptosis in human A549 cells assessed as increase in […] accumulation; assay type: functional, cell-based
A549 [9] = experiment: Induction of ferroptosis in human A549 cells assessed as increase in malondialdehyde content; assay type: functional, cell-based
A549 [10] = experiment: Activation of Nrf2-Keap1-HO-1 signaling pathway in human A549 cells assessed as increase in oxidative stress by measuring lipid ROS level at 10 to 20 uM by Western blot analysis; assay type: cell-based; conditions: filed as activator, dose 10-20 µM
[11] = molecular target: T1, Cystine/glutamate transporter (Homo sapiens) (UniProt Q9UPY5); experiment: Inhibition of SLC7A11 in human […] cells at 10 to 20 uM by Western blot analysis; assay type: cell-based; conditions: A549, dose 10-20 µM
T1 sequence (whole entry): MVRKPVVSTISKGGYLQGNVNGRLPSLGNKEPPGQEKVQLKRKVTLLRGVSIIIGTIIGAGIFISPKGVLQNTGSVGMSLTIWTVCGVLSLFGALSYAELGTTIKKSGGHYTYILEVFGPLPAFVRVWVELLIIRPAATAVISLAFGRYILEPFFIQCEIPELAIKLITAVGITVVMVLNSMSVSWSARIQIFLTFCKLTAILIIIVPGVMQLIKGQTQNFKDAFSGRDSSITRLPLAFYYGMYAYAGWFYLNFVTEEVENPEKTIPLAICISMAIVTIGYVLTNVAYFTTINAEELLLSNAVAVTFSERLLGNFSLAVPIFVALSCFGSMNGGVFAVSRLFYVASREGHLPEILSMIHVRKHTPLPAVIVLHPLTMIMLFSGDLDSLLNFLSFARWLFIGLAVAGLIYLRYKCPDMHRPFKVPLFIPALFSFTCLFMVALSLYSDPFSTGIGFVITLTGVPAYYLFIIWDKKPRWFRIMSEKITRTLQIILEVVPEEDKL

Cell membrane [12] = experiment: Induction of mitochondrial membrane potential loss in human A549 cells at 10 to 20 uM incubated for 6 hrs by JC-1 staining based flow cytometric analysis; assay type: cell membranes; conditions: dose 10-20 µM
Cell membrane [13] = experiment: Induction of mitochondrial membrane depolarization in human A549 cells assessed as increases in mitochondrial Ca2+ concentration by Rhod-2 AM probe based flow cytometric analysis; assay type: cell membranes
Cell membrane [14] = experiment: Induction of mitochondrial membrane depolarization in human A549 cells assessed as increases in mitochondrial Ca2+ concentration incubated for 8 hrs by Rhod-2 AM probe based flow cytometric analysis; assay type: cell membranes
A549 [15] = experiment: Induction of TMBIM6-VDAC1 protein-protein interaction in human A549 cells at 20 uM by immunoprecipitation analysis; assay type: cell-based; conditions: filed as activator
A549 [16] = experiment: Downregulation of TMBIM6 protein expression in human A549 cells at 10 uM by Western blot analysis; assay type: functional, cell-based
A549 [17] = experiment: Increase in Ca2+ level in human A549 cell cytoplasm at 5 to 20 uM incubated for 8 hrs by confocal photographic analysis; assay type: functional, cell-based; conditions: dose 5-20 µM
[18] = molecular target: Non-selective voltage-gated ion channel VDAC1 (Homo sapiens) (UniProt P21796); experiment: Activation of VDAC1 channel in human A549 cells assessed as increase in mitochondrial Ca2+ endocytosis by staining based analysis; assay type: cell-based; conditions: filed as opener
A549 [19] = experiment: Antiproliferative activity against human A549 cells assessed as inhibition of cell growth incubated for 24 hrs by CCK8 assay; assay type: functional, cell-based; conditions: A549, 24 h
A549 [20] = experiment: Antiproliferative activity against human A549 cells assessed as inhibition of cell growth incubated for 48 hrs by CCK8 assay; assay type: functional, cell-based; conditions: A549, 48 h
[21] = molecular target: Bax inhibitor 1 (Homo sapiens) (UniProt P55061); experiment: Binding affinity to TMBIM6 in human A549 cells assessed as increase in co-localization in cytoplasm at 4 uM by immunofluorescence analysis; assay type: cell-based
[22] = molecular target: Bax inhibitor 1 (Homo sapiens) (UniProt P55061); experiment: Competitive binding affinity to TMBIM6 in human A549 cells in presence of 2 to 6 fold of 13-oxyingenol dodecanoate by immunofluorescence analysis; assay type: cell-based
[23] = molecular target: Bax inhibitor 1 (Homo sapiens) (UniProt P55061); experiment: Binding affinity to TMBIM6 in human A549 cells at 4 uM by pull down Western blot analysis; assay type: cell-based
[24] = molecular target: Bax inhibitor 1 (Homo sapiens) (UniProt P55061); experiment: Competitive binding affinity to TMBIM6 in human A549 cells assessed as reduction in 13-oxyingenol dodecanoate binding to protein at 4 uM in presence of 6 fold 13-oxyingenol dodecanoate by pull down Western blot analysis; assay type: cell-based
[25] = molecular target: Bax inhibitor 1 (Homo sapiens) (UniProt P55061); experiment: Binding affinity to TMBIM6 at Met-68 residue in human A549 cells by high-resolution mass spectrometric analysis; assay type: cell-based
A549 [26] = experiment: Induction of autophagy in human A549 cells incubated for 12 hrs by MDC staining based flow cytometric analysis; assay type: functional, cell-based
A549 [27] = experiment: Induction of autophagy in human A549 cells assessed as effect on PINK1 protein expression upto 20 uM incubated for 24 hrs by Western blot analysis; assay type: functional, cell-based
A549 [28] = experiment: Induction of autophagy in human A549 cells assessed as effect on LC3II protein expression upto 20 uM incubated for 24 hrs by Western blot analysis; assay type: functional, cell-based
A549 [29] = experiment: Induction of ROS accumulation in human A549 cells incubated for 24 hrs by DCFH/C11-BODIPY probe based flow cytometric analysis; assay type: functional, cell-based; conditions: dose 5-20 µM
A549 [30] = experiment: Induction of ROS accumulation in human A549 cells at 20 uM by DCFH/C11-BODIPY probe based flow cytometric analysis; assay type: functional, cell-based; conditions: time 2-24 hrs, TDE = time-dependent effect
A549 [31] = experiment: Induction of lipid ROS accumulation in human A549 cells at 20 uM incubated for 24 hrs in presence of DFO by DCFH/C11-BODIPY probe based flow cytometric analysis; assay type: functional, cell-based
A549 [32] = experiment: Induction of lipid ROS accumulation in human A549 cells at 20 uM incubated for 24 hrs in presence of Fer-1 by DCFH/C11-BODIPY probe based flow cytometric analysis; assay type: functional, cell-based
A549 [33] = experiment: Induction of lipid ROS accumulation in human A549 cells at 20 uM incubated for 24 hrs in presence of Lip-1 by DCFH/C11-BODIPY probe based flow cytometric analysis; assay type: functional, cell-based
A549 [34] = experiment: Induction of lipid ROS accumulation in human A549 cells at 20 uM incubated for 24 hrs in presence of NAC by DCFH/C11-BODIPY probe based flow cytometric analysis; assay type: functional, cell-based
A549 [35] = experiment: Induction of ferroptosis in human A549 cells assessed as increase in malondialdehyde content at 5 to 20 uM; assay type: functional, cell-based; conditions: dose 5-20 µM
A549 [36] = experiment: Activation of Nrf2-Keap1-HO-1 signaling pathway in human A549 cells assessed as increase in oxidative stress by measuring lipid ROS level at 5 to 20 uM by Western blot analysis; assay type: cell-based; conditions: filed as activator, dose 5-20 µM
[37] = molecular target: T1, Cystine/glutamate transporter (Homo sapiens); experiment: Inhibition of SLC7A11 in human […] cells at 5 to 20 uM by Western blot analysis; assay type: cell-based; conditions: A549, dose 5-20 µM
A549 [38] = experiment: Stabilization of […] in human A549 cells assessed as reduction in polyubiquitination at 20 uM in presence of MG132 by immunoprecipitation analysis; assay type: cell-based
[39] = molecular target: Bax inhibitor 1 (Homo sapiens) (UniProt P55061); experiment: Binding affinity to TMBIM6 in human A549 cells by cluster analysis; assay type: cell-based

Chain of Non-selective voltage-gated ion channel VDAC1 (Homo sapiens) (P21796 whole entry): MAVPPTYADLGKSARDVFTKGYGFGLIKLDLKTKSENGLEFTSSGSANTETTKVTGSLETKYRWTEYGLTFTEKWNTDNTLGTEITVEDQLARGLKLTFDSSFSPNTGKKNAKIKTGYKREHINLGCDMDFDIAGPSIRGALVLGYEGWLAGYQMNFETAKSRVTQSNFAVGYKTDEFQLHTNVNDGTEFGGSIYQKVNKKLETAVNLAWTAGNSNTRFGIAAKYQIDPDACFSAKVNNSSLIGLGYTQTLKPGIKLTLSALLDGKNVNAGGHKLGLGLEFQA
Chain of Bax inhibitor 1 (Homo sapiens) (P55061 whole entry): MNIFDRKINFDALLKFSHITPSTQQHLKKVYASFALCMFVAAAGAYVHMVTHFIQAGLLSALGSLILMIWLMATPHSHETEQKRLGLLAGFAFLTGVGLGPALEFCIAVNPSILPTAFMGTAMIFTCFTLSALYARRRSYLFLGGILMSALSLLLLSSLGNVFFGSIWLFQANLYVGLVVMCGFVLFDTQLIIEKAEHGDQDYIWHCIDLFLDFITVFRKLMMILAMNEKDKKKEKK

| IC50 (HepG2) [µM] | IC50 (A549 [1]) [µM] | IC50 (NCI-H460) [µM] | Activity [3] | Activity [4] | inhibition [11] | Activity (Cell membrane [12]) | Activity (Cell membrane [13]) | Activity (Cell membrane [14]) | Activity [18] | SMILES | selectivity ratio [2] | Activity (A549 [5]) | Activity (A549 [6]) | Activity (A549 [7]) | Activity (A549 [8]) | Activity (A549 [9]) | Activity (A549 [10]) | Activity (A549 [15]) | Activity (A549 [16]) | Activity (A549 [17]) | further results |
| --- | --- | --- | --- | --- | --- | --- | --- | --- | --- | --- | --- | --- | --- | --- | --- | --- | --- | --- | --- | --- | --- |
| 21.4 | 4.7 | 8.5 | Active | Active | Active | Active | Active | Active | Active | CCCCCCCCCCCC(=O)O[C@@]12C[C@@H](C)[C@]34C=C(C)[C@H](OC(=O)NCCC)[C@@]3(O)[C@H](O)C(CO)=C[C@H](C4=O)[C@@H]1C2(C)C | 10.6 | Active | Active | Active | Active | Active | Active | Active | Active | Active |  |
|  |  |  |  |  |  |  |  |  |  | C#CCCC1(CCNC(=O)O[C@H]2C(C)=C[C@]34C(=O)[C@@H](C=C(CO)[C@@H](O)[C@]23O)[C@@H]2C(C)(C)[C@]2(OC(=O)CCCCCCCCCCC)C[C@H]4C)N=N1 |  |  |  |  |  |  |  |  |  |  | IC50 (A549 [19]): 8.1 µM; IC50 (A549 [20]): 13.8 µM; Activity [21]: Active; Activity [22]: Active; Activity [23]: Active; Activity [24]: Active; Activity [25]: Active |
| 21.1 | 2.6 | 20.8 | Active | Active | Active | Active | Active | Active | Active | CCCCCCCCCCCC(=O)O[C@@]12C[C@@H](C)[C@]34C=C(C)[C@H](OC(=O)c5ccc(F)cc5)[C@@]3(O)[C@H](O)C(CO)=C[C@H](C4=O)[C@@H]1C2(C)C | 19.8 | Active | Active | Active | Active | Active | Active | Active | Active | Active |  |

| SMILES | IC50 (HepG2) [µM] | IC50 (A549 [1]) [µM] | IC50 (NCI-H460) [µM] | Activity [3] | Activity [4] | inhibition [11] | Activity (Cell membrane [12]) | Activity (Cell membrane [13]) | Activity (Cell membrane [14]) | Activity [18] | selectivity ratio [2] | Activity (A549 [5]) | Activity (A549 [6]) | Activity (A549 [7]) | Activity (A549 [8]) | Activity (A549 [9]) | Activity (A549 [10]) | Activity (A549 [15]) | Activity (A549 [16]) | Activity (A549 [17]) | further results |
| --- | --- | --- | --- | --- | --- | --- | --- | --- | --- | --- | --- | --- | --- | --- | --- | --- | --- | --- | --- | --- | --- |
| CCCCCCCCCCCC(=O)O[C@@]12C[C@@H](C)[C@]34C=C(C)[C@H](O)[C@@]3(O)[C@H](O)C(CO)=C[C@H](C4=O)[C@@H]1C2(C)C | 5.3 | 3.9 | 7 | Active | Active |  |  | Active | Active | Active | 11.1 |  |  | Active | Active |  |  | Active | Active | Active | IC50 (A549 [19]): 8.67 µM; IC50 (A549 [20]): 17.5 µM; Activity (A549 [26]): Dose-Dependent Effect; Activity (A549 [27]): Active; Activity (A549 [28]): Active; Activity (A549 [29]): Dose-Dependent Effect; Activity (A549 [30]): Tde; Activity (A549 [31]): inactive; Activity (A549 [32]): inactive; Activity (A549 [33]): inactive; Activity (A549 [34]): inactive; Activity (A549 [35]): Active; Activity (A549 [36]): Active; inhibition [37]: Active; Activity (A549 [38]): Active; Activity [39]: Active |
